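Interpolation was linear, between the two tested concentrations surrounding the appropriate level; five concentrations were tested over 48 hours in 96-well plates. The concentration for 50% growth inhibition is given as GI50. The concentration for full growth arrest is given as TGI.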
Columns and labels:
Assay in all cases: growth of human tumour cells (NCI), 48 h
U251 CNS = test system: U251 CNS
NCI-H23 lung = test system: NCI-H23 lung
MDA-MB-435 = test system: MDA-MB-435
TK-10 renal = test system: TK-10 renal
SF-268 CNS = test system: SF-268 CNS
CAKI-1 renal = test system: CAKI-1 renal
K-562 leukemia = test system: K-562 leukemia
SF-539 CNS = test system: SF-539 CNS
MDA-MB-231 breast = test system: MDA-MB-231 breast
HOP-62 NSCLC = test system: HOP-62 NSCLC
SF-295 CNS = test system: SF-295 CNS
OVCAR-8 ovarian = test system: OVCAR-8 ovarian
NCI-H522 lung = test system: NCI-H522 lung
EKVX NSCLC = test system: EKVX NSCLC
SNB-75 CNS = test system: SNB-75 CNS
SN12C renal = test system: SN12C renal
DU-145 prostate = test system: DU-145 prostate
HCT-15 colon = test system: HCT-15 colon
ACHN renal = test system: ACHN renal
UACC-257 melanoma = test system: UACC-257 melanoma
COLO 205 colon = test system: COLO 205 colon
SK-MEL-28 melanoma = test system: SK-MEL-28 melanoma
M14 melanoma = test system: M14 melanoma
SK-MEL-2 melanoma = test system: SK-MEL-2 melanoma
UACC-62 melanoma = test system: UACC-62 melanoma
NCI-H226 lung = test system: NCI-H226 lung
BT-549 breast = test system: BT-549 breast
786-0 renal = test system: 786-0 renal
OVCAR-5 ovarian = test system: OVCAR-5 ovarian
SNB-19 CNS = test system: SNB-19 CNS
MCF7 breast = test system: MCF7 breast
HS 578T breast = test system: HS 578T breast
IGROV1 ovarian = test system: IGROV1 ovarian
HCT-116 colon = test system: HCT-116 colon
SR leukemia = test system: SR leukemia
CCRF-CEM leukemia = test system: CCRF-CEM leukemia
T-47D breast = test system: T-47D breast
PC-3 prostate = test system: PC-3 prostate
NCI-H460 lung = test system: NCI-H460 lung
KM12 colon = test system: KM12 colon
A549 NSCLC = test system: A549 NSCLC
HOP-92 NSCLC = test system: HOP-92 NSCLC
SW-620 colon = test system: SW-620 colon
HT29 colon = test system: HT29 colon
OVCAR-4 ovarian = test system: OVCAR-4 ovarian
HCC-2998 colon = test system: HCC-2998 colon
RPMI-8226 leukemia = test system: RPMI-8226 leukemia
RXF 393 renal = test system: RXF 393 renal
UO-31 renal = test system: UO-31 renal
A498 renal = test system: A498 renal
SK-OV-3 ovarian = test system: SK-OV-3 ovarian
MOLT-4 leukemia = test system: MOLT-4 leukemia
HL-60(TB) leukemia = test system: HL-60(TB) leukemia
LOX IMVI melanoma = test system: LOX IMVI melanoma
NCI/ADR-RES ovarian = test system: NCI/ADR-RES ovarian
OVCAR-3 ovarian = test system: OVCAR-3 ovarian
SK-MEL-5 melanoma = test system: SK-MEL-5 melanoma

N#Cc1c(N/N=C/c2ccc(Cl)cc2Cl)nc(N)nc1N1CCCC1
GI50 (U251 CNS): 9.02 µM | TGI (U251 CNS): 23.4 µM | GI50 (NCI-H23 lung): 38.5 µM | TGI (NCI-H23 lung): > 100 µM | GI50 (MDA-MB-435): 62.2 µM | TGI (MDA-MB-435): > 100 µM | GI50 (TK-10 renal): 54.3 µM | TGI (TK-10 renal): > 100 µM | GI50 (SF-268 CNS): 68.3 µM | TGI (SF-268 CNS): > 100 µM | GI50 (CAKI-1 renal): 21.7 µM | TGI (CAKI-1 renal): 63.2 µM | GI50 (K-562 leukemia): 16.7 µM | TGI (K-562 leukemia): 49.5 µM | GI50 (SF-539 CNS): 22.8 µM | TGI (SF-539 CNS): > 100 µM | GI50 (MDA-MB-231 breast): 24.8 µM | TGI (MDA-MB-231 breast): > 100 µM | GI50 (HOP-62 NSCLC): 15.2 µM | TGI (HOP-62 NSCLC): 32.4 µM | GI50 (SF-295 CNS): 18.8 µM | TGI (SF-295 CNS): > 100 µM | GI50 (OVCAR-8 ovarian): 27.5 µM | TGI (OVCAR-8 ovarian): > 100 µM | GI50 (NCI-H522 lung): 28.9 µM | TGI (NCI-H522 lung): > 100 µM | GI50 (EKVX NSCLC): > 100 µM | TGI (EKVX NSCLC): > 100 µM | GI50 (SNB-75 CNS): 6.26 µM | TGI (SNB-75 CNS): 49.8 µM | GI50 (SN12C renal): 51.9 µM | TGI (SN12C renal): > 100 µM | GI50 (DU-145 prostate): 10.7 µM | TGI (DU-145 prostate): > 100 µM | GI50 (HCT-15 colon): 19.3 µM | TGI (HCT-15 colon): > 100 µM | GI50 (ACHN renal): 24.5 µM | TGI (ACHN renal): 90.2 µM | GI50 (UACC-257 melanoma): > 100 µM | TGI (UACC-257 melanoma): > 100 µM | GI50 (COLO 205 colon): 88.1 µM | TGI (COLO 205 colon): > 100 µM | GI50 (SK-MEL-28 melanoma): 37.6 µM | TGI (SK-MEL-28 melanoma): > 100 µM | GI50 (M14 melanoma): 44.2 µM | TGI (M14 melanoma): > 100 µM | GI50 (SK-MEL-2 melanoma): 72.3 µM | TGI (SK-MEL-2 melanoma): > 100 µM | GI50 (UACC-62 melanoma): 25.6 µM | TGI (UACC-62 melanoma): 84.2 µM | GI50 (NCI-H226 lung): 15.7 µM | TGI (NCI-H226 lung): > 100 µM | GI50 (BT-549 breast): > 100 µM | TGI (BT-549 breast): > 100 µM | GI50 (786-0 renal): 19.5 µM | TGI (786-0 renal): 47.6 µM | GI50 (OVCAR-5 ovarian): 24.6 µM | TGI (OVCAR-5 ovarian): 99.7 µM | GI50 (SNB-19 CNS): 49.9 µM | TGI (SNB-19 CNS): > 100 µM | GI50 (MCF7 breast): > 100 µM | TGI (MCF7 breast): > 100 µM | GI50 (HS 578T breast): 2.4 µM | TGI (HS 578T breast): 7.01 µM | GI50 (IGROV1 ovarian): 13.8 µM | TGI (IGROV1 ovarian): 39.5 µM | GI50 (HCT-116 colon): 20.9 µM | TGI (HCT-116 colon): > 100 µM | GI50 (SR leukemia): 10.7 µM | TGI (SR leukemia): 42.9 µM | GI50 (CCRF-CEM leukemia): 23.5 µM | TGI (CCRF-CEM leukemia): 58.3 µM | GI50 (T-47D breast): 88.4 µM | TGI (T-47D breast): > 100 µM | GI50 (PC-3 prostate): 12.2 µM | TGI (PC-3 prostate): 38.4 µM | GI50 (NCI-H460 lung): 63.9 µM | TGI (NCI-H460 lung): > 100 µM | GI50 (KM12 colon): > 100 µM | TGI (KM12 colon): > 100 µM | GI50 (A549 NSCLC): 29.6 µM | TGI (A549 NSCLC): 65 µM | GI50 (HOP-92 NSCLC): 17.6 µM | TGI (HOP-92 NSCLC): 43.7 µM | GI50 (SW-620 colon): 19.5 µM | TGI (SW-620 colon): > 100 µM | GI50 (HT29 colon): 37.1 µM | TGI (HT29 colon): > 100 µM | GI50 (OVCAR-4 ovarian): 14.8 µM | TGI (OVCAR-4 ovarian): > 100 µM | GI50 (HCC-2998 colon): > 100 µM | TGI (HCC-2998 colon): > 100 µM | GI50 (RPMI-8226 leukemia): 30.9 µM | TGI (RPMI-8226 leukemia): > 100 µM | GI50 (RXF 393 renal): 21.5 µM | TGI (RXF 393 renal): 66.2 µM | GI50 (UO-31 renal): 32 µM | TGI (UO-31 renal): > 100 µM | GI50 (A498 renal): 19.5 µM | TGI (A498 renal): 36.1 µM | GI50 (SK-OV-3 ovarian): 47.8 µM | TGI (SK-OV-3 ovarian): > 100 µM | GI50 (MOLT-4 leukemia): 25 µM | TGI (MOLT-4 leukemia): > 100 µM | GI50 (HL-60(TB) leukemia): 27.7 µM | TGI (HL-60(TB) leukemia): 59.4 µM | GI50 (LOX IMVI melanoma): 31.8 µM | TGI (LOX IMVI melanoma): > 100 µM | GI50 (NCI/ADR-RES ovarian): 19.4 µM | TGI (NCI/ADR-RES ovarian): 82.4 µM | GI50 (OVCAR-3 ovarian): 25.5 µM | TGI (OVCAR-3 ovarian): > 100 µM | GI50 (SK-MEL-5 melanoma): 21.5 µM | TGI (SK-MEL-5 melanoma): > 100 µM
